Source: patent US20260294906A1, “TREATING PSORIASIS USING A SMALL MOLECULE INHIBITOR OF TUMOR NECROSIS FACTOR ALPHA” (SANOFI, priority 2023, published 2026)
Entries after “also recorded” stand apart in the source; their conditions may differ.

Tested on: participants with mild to moderate psoriasis
Experiment: Liver function laboratory tests in the clinical study
Assay type: in vivo, human
Method: Two study interventions were used, Compound 1 and placebo. The Compound 1 intervention comprised 4× tablets of Compound 1 50 mg twice daily, i.e. 200 mg BID, for 4 weeks. The placebo intervention was 4× tablets of placebo twice daily for 4 weeks. Tablets were administered orally.
Laboratory tests (from at least 10 hours under fasting conditions for blood samples) included: • Hematology: red blood cell count, hematocrit, hemoglobin, white blood cell count with differential count (neutrophils, eosinophils, basophils, monocytes, and lymphocytes), platelets. • Biochemistry: • Plasma/serum electrolytes: sodium, potassium, chloride, calcium, • Liver function: AST, ALT, alkaline phosphatase, GGT, total and conjugated bilirubin, • Renal function: urea, creatinine, • Metabolism: glucose, albumin, total proteins, total cholesterol, triglycerides, • Potential muscle toxicity: CK, • International normalized ratio (INR), and activated partial thromboplastin time (aPTT), • C-reactive protein; the CRP levels were evaluated by an independent investigator who is not involved in the study to protect the blinding of the study. CRP values were provided by the independent investigator to the investigator in case of medical need. • Procalcitonin at screening, week 2 and EOS. • QuantiFERON-TB Gold (QFT) test.
For AESI in this study, the Sponsor was to be informed immediately (i.e., within 24 hours), as per SAE notification guidelines, even if a seriousness criterion was not met, using the corresponding screens in the eCRF. • ALT increased >3×ULN. • QT prolongation (QTcF≥500 milli seconds [ms]) and/or a delta QTc change from baseline>60 ms (12-lead ECG). In the event of prolongation of QTc interval (automatic measurement)≥500 ms, confirmed by a manual reading by the Investigator or a physician delegated by the Investigator using the Fridericia formula for correcting QT, the participant was placed under supervision in a specialized setting. Investigational medicinal product administration was stopped, and appropriate blood samples collected. Subsequent ECG monitoring of the participant was then performed on a regular and clinically responsible basis until the QTc interval returned to a safe value as determined by the Investigator in agreement with the Sponsor. • Photosensitivity (Grade 2 and above AE due to sun exposure). • Pregnancy. • Symptomatic overdose. • An overdose (accidental or intentional) with the IMP is an event suspected by the Investigator or spontaneously notified by the participant (not based on systematic pills count) and defined as at least twice the intended dose within the intended therapeutic interval, adjusted according to the tested drug.
Once the participant was included in the clinical trial, the following laboratory abnormalities were monitored, documented, and managed: • Neutropenia, characterized as neutrophils <1500/mm^3 or according to ethnic group (recorded as an AE only if at least 1 of the criteria listed above was met) • Thrombocytopenia, characterized as platelets <100,000/mm^3 confirmed with or without bleeding (recorded as an AE only if at least 1 of the criteria listed above was met) • Increase of ALT. Patients were monitored where 3 ULN<ALT≤5 ULN and total bilirubin was ≤2 ULN. […]

SMILES: CN1C(=O)c2cccc(OC(F)F)c2[C@H]2C[C@@H]1c1nc3ccc(-c4cnc(C5(N)CCC5)nc4)cc3n12 [Compound 1, (7R,14R)-11-[2-(1-aminocyclobutyl)pyrimidin-5-yl]-1-(difluoromethoxy)-6-methyl-6,7-dihydro-7,14-methanobenzimidazo[1,2-b][2,5]benzodiazocin-5(14H)-one]
- potentially clinically significant abnormality (PCSA) for ALT increase (200 mg BID): no PCSA for ALT increase
- total bilirubin, first participant (200 mg BID, Day 8, baseline 1.5 ULN): 1.67 ULN
- total bilirubin, second participant (200 mg BID, day not given, baseline 1.3 ULN): 1.56 ULN
- Number of participants with total bilirubin increased >1.5 ULN (200 mg BID, one single occasion): two
- liver function tests / impact on liver parameters (in words) (4-week clinical trial): no signal for risks on liver function tests; also recorded: neither was any significant impact on cardiac parameters (e.g., QTcF interval) or liver parameters (e.g., AST, ALT, or bilirubin levels) observed
